This is an account of results in the METLIN SMRT retention time set (Domingo-Almenara et al. 2019).

The data set is described as follows: gradient 5% acetonitrile 3 min, to 50% in 2 min, to 85% in 15 min, held 3 min, 100 µL/min. The settings on record: column: Zorbax Extend-C18 2.1 x 50 mm; eluents: water / acetonitrile, 0.1% formic acid. In outline: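 Values are retention times taken from adduct peaks that software picked and an analyst inspected. The pure standards were run as mixtures of ~100 molecules on HPLC linked to a quadrupole time-of-flight mass spectrometer, in positive and negative ionization mode. A Zorbax Extend-C18 column (2.1 × 50 mm, 1.8 μm) was used at 100 μL/min with water and acetonitrile, each including 0.1% formic acid.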
In the case of `O=C(COC(=O)c1cccc([N+](=O)[O-])c1)c1ccc(NC(=O)c2ccccc2)cc1`, the RP-LC retention time came out at 921 s.

Consider `CCOc1cc(C(=O)N2CCN(c3c(C)n(C)c(=O)n(C)c3=O)CC2)cc(OCC)c1OCC`, for which the RP-LC retention time worked out at 810 s.

Consider `CC(C)Cc1nc(CNC(=O)C2CCCCC2)no1`, for which the RP-LC retention time was found to be 836 s.

Compound `COc1cccc(C(=O)Nc2ccc3c(c2)Sc2ncccc2C(=O)N3C)c1` showed an RP-LC retention time of 785 s.

For `CC(C)C(=O)N1CCc2c(c(C(=O)NCc3ccc4c(c3)OCO4)nn2C)C1`, the RP-LC retention time was 708 s.

On to `COc1ccc2nc(NC(=O)Cc3csc4nc(-c5ccccc5)cn34)sc2c1`, for which the RP-LC retention time is 810 s.

Compound `COc1cc(CN2CC(Oc3ccc(-c4noc(-c5ccncc5)n4)cc3)C2)cc(OC)c1` registered an RP-LC retention time of 728 s.

Take `CCn1c(=O)n(CC)c2cc(N3CCCC3)c(NC(=O)NCc3cccc(F)c3)cc21`: the RP-LC retention time was determined as 654 s.

`CCN(CC)C(=O)[C@@H]1[C@H](c2cc(OC)c(OC)c(OC)c2)c2cc3c(cc2[C@H](O)[C@H]1CO)OCO3` returned an RP-LC retention time of 679 s.

`COCc1noc([C@@H]2CC(F)(F)CN2C(=O)c2cncn2C)n1` came in with an RP-LC retention time of 584 s.

In turn, `CCOc1ccc(-c2noc(Cc3nnc(-c4cccc(F)c4)o3)n2)cc1` gave an RP-LC retention time of 1090 s.

`COc1cc(NC(=O)C2c3ccccc3C(=O)N3CCc4ccccc4C23)cc(OC)c1OC` (centres undefined) showed an RP-LC retention time of 776 s.

`Cc1nc(Cn2cccc2C(=O)Nc2ccc(C)c(F)c2)no1` had an RP-LC retention time of 889 s.

`Cc1ccc(-c2cn3ccccc3n2)cc1NS(=O)(=O)c1ccc(Cl)cc1` displayed an RP-LC retention time of 692 s.

On to `Cc1nnc(N2CCCC(C(=O)NCCCN3CCCCCC3)C2)c2nn(-c3ccccc3)c(C)c12` (centres undefined), for which the RP-LC retention time came out at 586 s.

`CCCNC(=O)C(=O)NCC(c1ccc2c(c1)CCCN2C)N1CCCCC1` (centres undefined) returned an RP-LC retention time of 598 s.

Compound `Cc1ccc(-c2cc(C(=O)O)c3ccccc3n2)c(C)c1` yielded an RP-LC retention time of 821 s.

As for `COc1ccc(OCc2nn3c(COc4ccc(F)cc4)nnc3s2)cc1`, the RP-LC retention time amounted to 928 s.

As to `Cc1noc(C)c1CNC(=O)c1cc(Cl)ccc1F`, the RP-LC retention time amounted to 778 s.

The compound `Cc1ccc(Sc2nccnc2N2CCCC(C(=O)Nc3ccc(F)cc3C)C2)cc1` (centres undefined) registered an RP-LC retention time of 1140 s.

As for `CCSc1nnc(-c2nn(C)c3c2CN(S(=O)(=O)c2cccc(F)c2)CC3)n1CC`, the RP-LC retention time worked out at 922 s.

With `COc1ccc(-c2nc(Cn3ccn4nc(-c5ccccc5OC)cc4c3=O)c(C)o2)cc1`, the RP-LC retention time came to 1100 s.

`Cc1cc(C)nc(SCC(=O)Nc2cccc3ccccc23)n1` showed an RP-LC retention time of 779 s.

The compound `Cc1nn(C)c(C)c1CCN(C)C(=O)C1CCCCC(=O)N1C` (centres undefined) registered an RP-LC retention time of 582 s.

Turning to `O=S(=O)(NCC(c1cccnc1)c1c[nH]c2ccccc12)c1ccc(Cl)c(Cl)c1` (centres undefined), the RP-LC retention time is 787 s.

In turn, `CCOC(=O)C1=C(CN2CCN(C)CC2)NC(=O)NC1c1cccc(OC)c1OC` (centres undefined) yielded an RP-LC retention time of 595 s.

`Cc1cc(C)cc(Oc2nccn3c(=O)n(CC(=O)NCc4ccco4)nc23)c1` returned an RP-LC retention time of 1210 s.

On to `Cc1cc(-c2nnc(NC(=O)c3ccn(C)n3)o2)c(C)o1`, for which the RP-LC retention time is 654 s.

As for `O=C(Nc1ccccc1C(F)(F)F)N1CCN(c2ccc(=O)n(-c3ccc(F)cc3)n2)CC1`, the RP-LC retention time worked out at 794 s.

Compound `Cc1cc(C(=O)Nc2ccc3c(c2)N(S(=O)(=O)c2ccc(F)cc2)CCC3)c(C)o1` displayed an RP-LC retention time of 1010 s.

On to `Cc1nc(-c2cc3ccccc3nc2N2CCN(C(=O)Cc3ccccc3)CC2)no1`, for which the RP-LC retention time stood at 934 s.

Compound `O=C(CCCc1ccccc1)N1CCN(c2nc(CN3CCCCC3)cs2)CC1` displayed an RP-LC retention time of 692 s.

Compound `O=C(NCCC1=CCCCC1)C1CCCN(C(=O)Cc2cccc3ccccc23)C1` (centres undefined) gave an RP-LC retention time of 1030 s.

`Cc1ccccc1Nc1c(-c2cc(Br)ccc2F)nc2ccc(Cl)cn12` yielded an RP-LC retention time of 1100 s.

As for `Cc1ccc(Nc2ncccc2S(N)(=O)=O)cc1Cl`, the RP-LC retention time amounted to 924 s.

In turn, `CC(C)N1CCN(S(=O)(=O)c2ccc(-c3nnc(C4CC4)o3)o2)CC1` returned an RP-LC retention time of 611 s.

Compound `COc1ccccc1C(CNC(=O)c1cc(=O)c2ccc(Br)cc2o1)N(C)C` (centres undefined) displayed an RP-LC retention time of 669 s.

`O=C(O)c1nnn(-c2cccc(F)c2)c1-c1ccncc1` came in with an RP-LC retention time of 616 s.

`CS(=O)(=O)N1CCC(C(=O)Nc2cccc(F)c2)Oc2ccc(Cl)cc21` (centres undefined) had an RP-LC retention time of 982 s.

Compound `O=C(NCc1csc(C2CCCN(C(=O)c3ccccc3)C2)n1)C1CC1` (centres undefined) returned an RP-LC retention time of 693 s.

`CCC(=O)N1CCCC(c2ccnc(Nc3ccc(C)cc3)n2)C1` (centres undefined) showed an RP-LC retention time of 827 s.

As for `CCn1ccc(C(=O)N2CCN(C(=O)N3C[C@H]4C[C@H](C3)[C@H]3CCCC(=O)N3C4)CC2)n1`, the RP-LC retention time was found to be 609 s.

Consider `COc1cc([C@@H]2c3cc4c(cc3[C@@H](O)[C@H]3COC(=O)[C@H]23)OCO4)cc(OC)c1O`, for which the RP-LC retention time is 680 s.

For `Cc1cc2c(N3CCCC(C(=O)NCc4ccc(N5CCC(C)CC5)cc4)C3)nccc2s1` (centres undefined), the RP-LC retention time is 592 s.

`Clc1cccc(CN2CCN(c3cnn4c(C5CC5)nnc4c3)CC2)c1` returned an RP-LC retention time of 750 s.

The compound `COc1ccc(OC)c(N2C(=O)c3cccnc3C2Nc2ccc(C(C)=O)cc2)c1` (centres undefined) had an RP-LC retention time of 698 s.

`CC1CN(C(=O)CCC(=O)NCCCN2CCN(C3CCCCC3)CC2)c2ccccc2O1` (centres undefined) displayed an RP-LC retention time of 602 s.

Compound `CCc1ccc2nc(Nc3ncc4c(n3)CCCC4=O)nc(C)c2c1` displayed an RP-LC retention time of 650 s.

`CCOc1ccc(-c2cc3c(=O)n(Cc4nc(-c5ccccc5C)no4)ccn3n2)cc1` displayed an RP-LC retention time of 1170 s.

Turning to `COc1ccc(CNC(=O)c2cc(-c3ccncc3)cn2C)cc1OC`, the RP-LC retention time worked out at 605 s.

Turning to `CN1CCN(c2ncc3c(n2)CC(c2ccc(Cl)cc2)CC3=O)CC1` (centres undefined), the RP-LC retention time worked out at 674 s.

`O=C(NCc1csc(C2CCN(C(=O)Cc3ccccc3Cl)CC2)n1)C1CCC1` showed an RP-LC retention time of 753 s.

Compound `O=C(Nc1cccc(Cl)c1)Nn1cnnc1` yielded an RP-LC retention time of 691 s.

`CCCn1cc(CCNS(=O)(=O)c2ccc(C)c(Cl)c2)c2cccnc21` registered an RP-LC retention time of 939 s.

In turn, `Cn1nc(-c2nc(C3CC3)no2)c2c1CCN(C(=O)c1ccc(Br)cc1)C2` gave an RP-LC retention time of 893 s.

In turn, `O=C(CCc1c[nH]c2ccccc12)N1CCn2cnnc2C1` had an RP-LC retention time of 778 s.

Regarding `CC1CCN(S(=O)(=O)c2ccc(C(=O)Nc3nc4c(s3)CCc3ccccc3-4)cc2)CC1`, the RP-LC retention time is 1290 s.

As to `COC(=O)c1cnc2nc(C)ccc2c1Nc1ccc(F)c(Cl)c1`, the RP-LC retention time was 717 s.

`Cc1ccc(C(=O)NCc2cnoc2-c2ccc(F)cc2)cn1` came in with an RP-LC retention time of 665 s.

With `O=S(=O)(Cc1ccccc1)N1CCC(c2noc(-c3cnccn3)n2)C1` (centres undefined), the RP-LC retention time is 797 s.

`O=C(Nc1ccc(Nc2ccncc2)cc1)c1ccc([N+](=O)[O-])cc1` had an RP-LC retention time of 1250 s.

In turn, `COCCN(Cc1ccco1)C(=O)Cn1nc(Cc2cccnc2)c2ccccc2c1=O` came in with an RP-LC retention time of 613 s.

Compound `CS(=O)(=O)N1CCC(C(=O)NCc2ccco2)Oc2ccc(Cl)cc21` (centres undefined) had an RP-LC retention time of 839 s.

In the case of `CCc1ccccc1S(=O)(=O)N1CCC2(CC1)C(=O)N(CC)c1ccccc12`, the RP-LC retention time stood at 1130 s.

The compound `Cn1cc(CCN2CCN(S(=O)(=O)c3ccc(C#N)cc3)CC2)c2cccnc21` yielded an RP-LC retention time of 616 s.

Compound `CCN1CCCn2cc(S(=O)(=O)NCc3ccccc3C(F)(F)F)cc2C1=O` had an RP-LC retention time of 792 s.

The compound `Cc1ccc(CNC(=O)C2c3ccccc3CC(=O)N2C)o1` (centres undefined) showed an RP-LC retention time of 693 s.

For `CCC1CCCCN1CCCNC(=O)c1cc(S(=O)(=O)N2CCCC2)ccc1Cl` (centres undefined), the RP-LC retention time was 661 s.

As for `COc1cc(NC(=O)Cn2c(=O)n(-c3ccc(F)cc3)c(=O)c3c2cc(C)n3C)cc(OC)c1`, the RP-LC retention time worked out at 798 s.

The compound `Cc1c(C(=O)NC(C)C)cnn1-c1ccc(-c2nc(C(C)C)no2)cn1` yielded an RP-LC retention time of 931 s.

Consider `O=C(NCc1cc(F)cc(F)c1)c1ccc2c(c1)ncn2CCN1CCCC1`, for which the RP-LC retention time was determined as 594 s.

`COc1ccc(N2CCN(c3nc(C(=O)NCCN4CCOCC4)cs3)CC2)cc1` returned an RP-LC retention time of 615 s.

As to `CCc1ccc(S(=O)(=O)N2CC=C(c3cn(C)c4ncccc34)CC2)cc1`, the RP-LC retention time is 1100 s.

For the compound `Cc1cc(S(=O)(=O)N2[C@H]3CC[C@@H]2c2cnc(-c4ccccc4)nc2C3)ccc1F`, the RP-LC retention time came out at 1090 s.

`Cc1ccc(C)c(N2CCN(c3ccnc(SCC(=O)Nc4cccc(Cl)c4C)n3)CC2)c1` yielded an RP-LC retention time of 1020 s.

On to `C=CCc1cccc(/C=N/NC(=O)C[NH+]2CCN(Cc3ccccc3)CC2)c1[O-]`, for which the RP-LC retention time was 783 s.

Take `COCCNC(=O)NCC(O)Cc1ccccc1` (centres undefined): the RP-LC retention time is 591 s.

As to `CCCN(CCC)[C@@H]1CCc2c(OC)cccc2[C@@H]1C`, the RP-LC retention time was found to be 802 s.

Take `Cc1ccc(-c2nc(Cn3nnc(C(=O)NC4CCCC4)c3C)c(C)o2)cc1`: the RP-LC retention time is 1060 s.
